How the values were obtained:
[1] = test system: chick chorioallantoic membrane (CAM); assay: Chick chorioallantoic membrane (CAM) angiogenesis assay; format: in vivo, chicken; conditions: bFGF stimulated CAMs
[2] = test system: Human umbilical vein endothelial cells (HUVEC); assay: Endothelial cell migration assay (transwell) on ECM substrates; format: cell-based
Method: Human umbilical vein endothelial cells (HUVEC) were grown in Endothelial Growth Medium (containing 2% fetal bovine serum, bFGF and VEGF) (Clonetics, San Diego, Calif.). To render HUVECs quiescent for Rac and/or Rho assays, monolayers of endothelial cells were incubated for 18 hrs in Endothelial Basal Medium supplemented with 0.1% serum (Clonetics). Cell migration and adhesion assays on ECM substrates were performed as previously described in Kim et al. (S. Kim et al., Amer. J. Biol. Chem., 275:33920-33928 (2000); and S. Kim et al., Amer. J. Path., 156:1345-1362 (2000)).
Migration assays were performed essentially as described (Kim, et. al., 2000). […] HUVECS (25,000) were added to the upper chamber of inserts in migration buffer (Hepes buffered M199 medium containing 1% BSA, 2 mM MgCl2, 2 mM CaCl2 and 0.2 mM MnCl2) containing 25 μg/ml of various antibodies. In some experiments, 250 μM dibutyryl cAMP was placed in the upper and lower chambers of the transwell. Cells were allowed to migrate from the upper to the lower chamber for four hours at 37° C. The number of cells which had migrated were counted in three representative high power (200×) fields per insert. The data are presented as number of cells migrating+/−standard error of the mean. Migration assays were similarly performed on transfected cells. In this case, migrated transfected cells were identified by fluorescent microscopy and counted.

[3] = test system: bFGF-stimulated angiogenesis in the mouse; assay: Murine matrigel angiogenesis assay; format: in vivo, nude mice; conditions: bFGF matrigel with peptide, subcutaneous

AVSEHQLLHS/D [PTHrP 1-10]
effectiveness at inhibiting angiogenesis relative to PTHrP 1-34 ([1]; 1 μM): slightly less effective
angiogenesis (blood vessel branch points, vessel density) ([1]; 1 μM peptide): effective in inhibiting angiogenesis in the CAM assay
endothelial cell migration on vitronectin ([2]; 1 μM peptide): similarly effective in inhibiting cell migration on vitronectin
maximum inhibition of cell migration ([2]; at a concentration of 10 μM): 50%
angiogenesis in matrigel plugs (fluorescence intensity of lectin) [3]: effective in inhibiting angiogenesis in a mouse model of angiogenesis

From patent US20060241067A1, “Methods For inhibiting angiogenesis, cell migration, cell adhesion, and cell survival” (priority 2002, published 2006)
